Test results taken from US10294202B2, “Pyrrolidinones as herbicides” (FMC Corporation, priority 2013, dated 2019).

Legend:
[1] = test system: corn; assay: Test C pre-/postemergence herbicide test; format: in vivo, Zea mays; conditions: Preemergence; for Plant response rating, Corn: 125 g ai/ha; for Plant response rating (scale of 0 to 100), Corn: 250 g ai/ha
Summary of the method: (§1)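 Test compounds, formulated in a surfactant-containing non-phytotoxic solvent blend, are applied to seeded loam/sand soil (preemergence) and to young plants at the 1- to 4-leaf stage in peat-based medium (postemergence). Plants stay 13 to 15 days under greenhouse conditions, then are scored visually relative to controls, 0 = no effect, 100 = complete control.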

[2] = test system: ryegrass, Italian; assay: Test C pre-/postemergence herbicide test; format: in vivo, Lolium multiflorum; conditions: Preemergence; for Plant response rating, Ryegrass, Italian: 125 g ai/ha; for Plant response rating (scale of 0 to 100), Ryegrass, Italian: 250 g ai/ha
Summary of the method: as §1

[3] = test system: johnsongrass; assay: Test C pre-/postemergence herbicide test; format: in vivo, Sorghum halepense; conditions: Preemergence; for Plant response rating, Johnsongrass: 125 g ai/ha; for Plant response rating (scale of 0 to 100), Johnsongrass: 250 g ai/ha
Summary of the method: as §1

[4] = test system: crabgrass, large; assay: Test C pre-/postemergence herbicide test; format: in vivo, Digitaria sanguinalis; conditions: Preemergence; for Plant response rating, Crabgrass, Large: 125 g ai/ha; for Plant response rating (scale of 0 to 100), Crabgrass, Large: 250 g ai/ha
Summary of the method: as §1

[5] = test system: wheat (winter wheat); assay: Test C pre-/postemergence herbicide test; format: in vivo, Triticum aestivum; conditions: Preemergence; for Plant response rating (scale of 0 to 100), Wheat: 250 g ai/ha
Summary of the method: as §1

[6] = test system: foxtail, giant; assay: Test C pre-/postemergence herbicide test; format: in vivo, Setaria faberii; conditions: Preemergence; for Plant response rating, Foxtail, Giant: 125 g ai/ha; for Plant response rating (scale of 0 to 100), Foxtail, Giant: 250 g ai/ha
Summary of the method: as §1

[7] = test system: barnyardgrass; assay: Test A pre-/postemergence herbicide test; format: in vivo, Echinochloa crus-galli
Summary of the method: (§2)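 Planted in loam–sand blend; treated the same day preemergence by directed soil spray, while separately grown plants at one- to two-leaf stage got postemergence spray. Compared visually with untreated controls after approximately 10 days; 100 means complete control.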

[8] = test system: morningglory; assay: Test C pre-/postemergence herbicide test; format: in vivo, Ipomoea coccinea; conditions: Preemergence; for Plant response rating, Morningglory: 125 g ai/ha; for Plant response rating (scale of 0 to 100), Morningglory: 250 g ai/ha
Summary of the method: as §1

[9] = test system: corn; assay: Test A pre-/postemergence herbicide test; format: in vivo, Zea mays
Summary of the method: as §2

[10] = test system: galium; assay: Test C pre-/postemergence herbicide test; format: in vivo, Galium aparine; conditions: Preemergence; for Plant response rating, Galium: 125 g ai/ha; for Plant response rating (scale of 0 to 100), Galium: 250 g ai/ha
Summary of the method: as §1

[11] = test system: wheat; assay: Test A pre-/postemergence herbicide test; format: in vivo, Triticum aestivum
Summary of the method: as §2

[12] = test system: pigweed; assay: Test A pre-/postemergence herbicide test; format: in vivo, Amaranthus retroflexus
Summary of the method: as §2

[13] = test system: soybean; assay: Test C pre-/postemergence herbicide test; format: in vivo, Glycine max; conditions: Preemergence; for Plant response rating, Soybean: 125 g ai/ha; for Plant response rating (scale of 0 to 100), Soybean: 250 g ai/ha
Summary of the method: as §1

[14] = 31 g ai/ha, scale 0 to 100, 0 is no effect and 100 is complete control
[15] = 62 g ai/ha, scale 0 to 100 (0 no effect, 100 complete control)
[16] = scale 0 to 100 (0 no effect, 100 complete control)
[17] = Postemergence, 125 g ai/ha, 0 to 100 scale, 0 is no effect, 100 is complete control
[18] = Postemergence, 500 g ai/ha, 0 to 100 scale (0 no effect, 100 complete control)
[19] = Preemergence, 125 g ai/ha, 0 to 100 scale where 0 is no effect and 100 is complete control
[20] = preemergence, 500 g ai/ha, 0 to 100 scale, 0 is no effect and 100 is complete control

O=C1NCC(c2ccc(C(F)(F)F)c(F)c2)C1C(=O)Nc1ccccc1F (racemic) [Compound 246]
Corn plant response rating [1, 14]: 0
Corn plant response rating [1, 15]: 0
Plant response rating, Corn [1, 16]: 5
Plant response rating (scale of 0 to 100), Corn [1]: 0
Ryegrass, Italian plant response rating [2, 14]: 0
Ryegrass, Italian plant response rating [2, 15]: 0
Plant response rating, Ryegrass, Italian [2, 16]: 10
Plant response rating (scale of 0 to 100), Ryegrass, Italian [2]: 10
Johnsongrass plant response rating [3, 14]: 0
Johnsongrass plant response rating [3, 15]: 20
Plant response rating, Johnsongrass [3, 16]: 0
Plant response rating (scale of 0 to 100), Johnsongrass [3]: 5
Crabgrass, Large plant response rating [4, 14]: 95
Crabgrass, Large plant response rating [4, 15]: 95
Plant response rating, Crabgrass, Large [4, 16]: 95
Plant response rating (scale of 0 to 100), Crabgrass, Large [4]: 98
Wheat plant response rating [5, 14]: 0
Wheat plant response rating [5, 15]: 0
Plant response rating, Wheat ([5]; 125 g ai/ha, scale 0 to 100 (0 no effect, 100 complete control)): 10
Plant response rating (scale of 0 to 100), Wheat [5]: 30
Foxtail, Giant plant response rating [6, 14]: 85
Foxtail, Giant plant response rating [6, 15]: 90
Plant response rating, Foxtail, Giant [6, 16]: 95
Plant response rating (scale of 0 to 100), Foxtail, Giant [6]: 95
Plant response rating, Barnyardgrass [7, 17]: 70
Plant response rating, Barnyardgrass [7, 18]: 70
Plant response rating, Barnyardgrass [7, 19]: 80
Plant response rating, Barnyardgrass [7, 20]: 90
Morningglory plant response rating [8, 14]: 5
Morningglory plant response rating [8, 15]: 5
Plant response rating, Morningglory [8, 16]: 10
Plant response rating (scale of 0 to 100), Morningglory [8]: 5
Plant response rating, Corn [9, 17]: 20
Plant response rating, Corn [9, 18]: 30
Plant response rating, Corn [9, 19]: 0
Plant response rating, Corn [9, 20]: 0
Galium plant response rating [10, 14]: 10
Galium plant response rating [10, 15]: 90
Plant response rating, Galium [10, 16]: 90
Plant response rating (scale of 0 to 100), Galium [10]: 90
Plant response rating, Wheat [11, 17]: 0
Plant response rating, Wheat [11, 18]: 30
Plant response rating, Wheat [11, 19]: 0
Plant response rating, Pigweed [12, 17]: 0
Plant response rating, Pigweed [12, 18]: 0
Plant response rating, Pigweed [12, 19]: 0
Plant response rating, Pigweed [12, 20]: 0
Soybean plant response rating [13, 14]: 0
Soybean plant response rating [13, 15]: 0
Plant response rating, Soybean [13, 16]: 0
Plant response rating (scale of 0 to 100), Soybean [13]: 10

O=C1NCC(c2ccc(C(F)(F)F)c(F)c2)C1C(=O)Nc1cccc(F)c1F (racemic) [Compound 247]
Corn plant response rating [1, 14]: 5
Corn plant response rating [1, 15]: 15
Plant response rating, Corn [1, 16]: 60
Plant response rating (scale of 0 to 100), Corn [1]: 60
Ryegrass, Italian plant response rating [2, 14]: 0
Ryegrass, Italian plant response rating [2, 15]: 35
Plant response rating, Ryegrass, Italian [2, 16]: 40
Plant response rating (scale of 0 to 100), Ryegrass, Italian [2]: 50
Johnsongrass plant response rating [3, 14]: 0
Johnsongrass plant response rating [3, 15]: 0
Plant response rating, Johnsongrass [3, 16]: 10
Plant response rating (scale of 0 to 100), Johnsongrass [3]: 5
Crabgrass, Large plant response rating [4, 14]: 95
Crabgrass, Large plant response rating [4, 15]: 95
Plant response rating, Crabgrass, Large [4, 16]: 98
Plant response rating (scale of 0 to 100), Crabgrass, Large [4]: 100
Wheat plant response rating [5, 14]: 0
Wheat plant response rating [5, 15]: 0
Plant response rating (scale of 0 to 100), Wheat [5]: 0
Foxtail, Giant plant response rating [6, 14]: 95
Foxtail, Giant plant response rating [6, 15]: 95
Plant response rating, Foxtail, Giant [6, 16]: 98
Plant response rating (scale of 0 to 100), Foxtail, Giant [6]: 100
Plant response rating, Barnyardgrass [7, 17]: 60
Plant response rating, Barnyardgrass [7, 18]: 80
Plant response rating, Barnyardgrass [7, 19]: 90
Plant response rating, Barnyardgrass [7, 20]: 90
Morningglory plant response rating [8, 14]: 0
Morningglory plant response rating [8, 15]: 0
Plant response rating, Morningglory [8, 16]: 5
Plant response rating (scale of 0 to 100), Morningglory [8]: 20
Plant response rating, Corn [9, 17]: 0
Plant response rating, Corn [9, 18]: 20
Plant response rating, Corn [9, 19]: 0
Plant response rating, Corn [9, 20]: 0
Galium plant response rating [10, 14]: 90
Galium plant response rating [10, 15]: 90
Plant response rating, Galium [10, 16]: 90
Plant response rating (scale of 0 to 100), Galium [10]: 90
Plant response rating, Wheat [11, 17]: 0
Plant response rating, Wheat [11, 18]: 30
Plant response rating, Wheat [11, 19]: 0
Plant response rating, Wheat [11, 20]: 0
Plant response rating, Pigweed [12, 17]: 0
Plant response rating, Pigweed [12, 18]: 0
Plant response rating, Pigweed [12, 19]: 0
Plant response rating, Pigweed [12, 20]: 0
Soybean plant response rating [13, 14]: 0
Soybean plant response rating [13, 15]: 0
Plant response rating, Soybean [13, 16]: 0
Plant response rating (scale of 0 to 100), Soybean [13]: 0
